Reference: patent US20220089592A1, “IMIDAZO[1,2-A]PYRIDINYL DERIVATIVES AS IRAK4 INHIBITORS” (priority 2019, published 2022)

target: T1, IRAK4 (Homo sapiens, UniProt Q9NWZ3); assay: 2-hour 1 mM ATP IRAK4 Biochemical assay (as above, but with 100 pM IRAK4 and 1 mM ATP); conditions: IRAK4 MSD BIOCHEMICAL (1 mM ATP) IC50 (μM), 100 pM IRAK4, 2 hours
T1 sequence (Q9NWZ3 1-460): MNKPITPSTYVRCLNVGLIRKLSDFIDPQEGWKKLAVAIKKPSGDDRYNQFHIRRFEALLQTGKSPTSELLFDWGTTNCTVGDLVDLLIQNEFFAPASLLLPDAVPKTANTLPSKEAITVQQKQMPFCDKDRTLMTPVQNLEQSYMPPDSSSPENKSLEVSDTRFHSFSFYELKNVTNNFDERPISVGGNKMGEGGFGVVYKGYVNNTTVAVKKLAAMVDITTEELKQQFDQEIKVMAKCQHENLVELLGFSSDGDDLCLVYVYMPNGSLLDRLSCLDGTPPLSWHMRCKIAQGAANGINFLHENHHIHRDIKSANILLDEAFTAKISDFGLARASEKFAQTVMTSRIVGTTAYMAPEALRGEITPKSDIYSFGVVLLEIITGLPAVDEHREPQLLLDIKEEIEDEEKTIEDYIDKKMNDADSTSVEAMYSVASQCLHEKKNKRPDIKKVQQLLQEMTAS
How it was run: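 MSD electrochemiluminescence read-out: biotinylated peptide product bound to streptavidin plates, probed with anti-P-Thr rabbit antibody and Sulfo-Tag goat anti-rabbit. Kinase reaction used 1 mM ATP and 100 pM IRAK4 over 2 hours before EDTA quench.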

SMILES	IC50 [µM]
CC(C)Oc1cc2nc(C(C)(C)C(=O)O)cn2cc1NC(=O)c1cccc(C(F)F)n1 [Example 262, 2-(6-(6-(difluoromethyl)picolinamido)-7-isopropoxyimidazo[1,2-a]pyridin-2-yl)-2-methylpropanoic acid]	0.006
CC(C)Oc1cc2nc(Cl)cn2cc1NC(=O)c1cccc(C(F)F)n1 [Example 294, N-(2-chloro-7-isopropoxyimidazo[1,2-a]pyridin-6-yl)-6-(difluoromethyl)picolinamide]	0.002
CCC(C)Oc1c(NC(=O)c2cccnc2OC)cn2cc(C34COC(C)(C3)C4)nc2c1F (single isomer, unassigned) [Example 328, N-(7-(sec-butoxy)-8-fluoro-2-(1-methyl-2-oxabicyclo[2.1.1]hexan-4-yl)imidazo[1,2-a]pyridin-6-yl)-2-methoxynicotinamide]	0.004
COc1ncccc1C(=O)Nc1cn2cc(Cl)nc2cc1OC(C)C [Example 401, N-(2-chloro-7-isopropoxyimidazo[1,2-a]pyridin-6-yl)-2-methoxynicotinamide]	0.027
CC(Oc1cc2nc(C34COC(C)(C3)C4)cn2cc1NC(=O)c1ccn(C)n1)C(F)(F)F (stereo not shown) [Example 399, 1-methyl-N-(2-(1-methyl-2-oxabicyclo[2.1.1]hexan-4-yl)-7-((1,1,1-trifluoropropan-2-yl)oxy)imidazo[1,2-a]pyridin-6-yl)-1H-pyrazole-3-carboxamide 2,2,2-trifluoracetate]	0.001
COc1ncccc1C(=O)Nc1cn2cc(C34COC(C)(C3)C4)nc2c(F)c1OC1CCCC1 [Example 329]	0.017
CCOc1cc2nc(C3CCOCC3)cn2cc1NC(=O)c1cccc(C2CCOC2)n1 (stereo not shown) [Example 367, N-(7-ethoxy-2-(tetrahydro-2H-pyran-4-yl)imidazo[1,2-a]pyridin-6-yl)-6-(tetrahydrofuran-3-yl)picolinamide]	0.011
COc1ccccc1C(=O)Nc1cn2cc(Cl)nc2cc1OC(C)C [Example 400, N-(2-chloro-7-isopropoxyimidazo[1,2-a]pyridin-6-yl)-2-methoxybenzamide 2,2,2-trifluoroacetate]	0.054
CC(C)Oc1cc2nc(C3CCOCC3)c(Cl)n2cc1NC(=O)c1cccc(C(F)F)n1 [Example 353, N-(3-chloro-7-isopropoxy-2-(tetrahydro-2H-pyran-4-yl)imidazo[1,2-a]pyridin-6-yl)-6-(difluoromethyl)picolinamide]	0.011
COC(=O)C(C)(C)c1cn2cc(NC(=O)c3cccc(C(F)F)n3)c(OC(C)C)cc2n1 [Example 261, methyl 2-(6-(6-(difluoromethyl)picolinamido)-7-isopropoxyimidazo[1,2-a]pyridin-2-yl)-2-methylpropanoate]	0.002
CC12CC(c3cn4cc(NC(=O)c5cccc(C(F)F)n5)c(C(F)F)cc4n3)(CO1)C2 [Example 393, 6-(difluoromethyl)-N-(7-(difluoromethyl)-2-(1-methyl-2-oxabicyclo[2.1.1]hexan-4-yl)imidazo[1,2-a]pyridin-6-yl)picolinamide 2,2,2-trifluoroacetate]	0.003
COc1ncccc1C(=O)Nc1cn2cc(C34COC(C)(C3)C4)nc2cc1OC(F)F [Example 396, N-(7-(difluoromethoxy)-2-(1-methyl-2-oxabicyclo[2.1.1]hexan-4-yl)imidazo[1,2-a]pyridin-6-yl)-2-methoxynicotinamide 2,2,2-trifluoroacetate]	0.002
COc1ncccc1C(=O)Nc1cn2cc(C34COC(C)(C3)C4)nc2cc1OC(C)C(F)(F)F (single isomer, unassigned) [Example 318, 2-methoxy-N-(2-(1-methyl-2-oxabicyclo[2.1.1]hexan-4-yl)-7-((1,1,1-trifluoropropan-2-yl)oxy)imidazo[1,2-a]pyridin-6-yl)nicotinamide]	0.005
COCc1cc2nc(C3CCOCC3)cn2cc1NC(=O)c1cccc(C)n1 [Example 371, N-(7-(methoxymethyl)-2-(tetrahydro-2H-pyran-4-yl)imidazo[1,2-a]pyridin-6-yl)-6-methylpicolinamide 2,2,2-trifluoroacetate]	0.035
CCOc1nc2nc(C3CCOCC3)cn2cc1NC(=O)c1cccc2c1OCC2 [Example 343, N-(7-ethoxy-2-(tetrahydro-2H-pyran-4-yl)imidazo[1,2-a]pyrimidin-6-yl)-2,3-dihydrobenzofuran-7-carboxamide]	0.004
O=C(Nc1cn2cc(C3CCOCC3)nc2cc1OCCC1CCOC1)c1cccc(C(F)F)n1 (stereo not shown) [Example 195, 6-(difluoromethyl)-N-(2-(tetrahydro-2H-pyran-4-yl)-7-(2-(tetrahydrofuran-3-yl)ethoxy)imidazo[1,2-a]pyridin-6-yl)picolinamide]	0.002
CC(C)Oc1cc2nc(C(F)F)cn2cc1NC(=O)c1ccn(C(F)F)n1 [Example 267, 1-(difluoromethyl)-N-(2-(difluoromethyl)-7-isopropoxyimidazo[1,2-a]pyridin-6-yl)-1H-pyrazole-3-carboxamide]	0.002
CCOc1cc2nc(C3CN(CC(F)F)C3)cn2cc1NC(=O)c1cccc(C(F)F)n1 [Example 78, N-(2-(1-(2,2-difluoroethyl)azetidin-3-yl)-7-ethoxyimidazo[1,2-a]pyridin-6-yl)-6-(difluoromethyl)picolinamide]	0.001
CCOc1cc2nc(C3C4COCC43)cn2cc1NC(=O)c1coc(C(F)F)n1 (stereo not shown) [Example 376, N-(2-(3-oxabicyclo[3.1.0]hexan-6-yl)-7-ethoxyimidazo[1,2-a]pyridin-6-yl)-2-(difluoromethyl)oxazole-4-carboxamide 2,2,2-trifluoroacetate]	0.009
CC12CC(c3cn4cc(NC(=O)c5coc(C(F)F)n5)nc(OC5CCC5)c4n3)(CO1)C2 [Example 485, N-(8-cyclobutoxy-2-(1-methyl-2-oxabicyclo[2.1.1]hexan-4-yl)imidazo[1,2-a]pyrazin-6-yl)-2-(difluoromethyl)oxazole-4-carboxamide 2,2,2-trifluoroacetate]	0.037
COc1cc(NC(=O)c2cccc(C(F)F)n2)cn2c(F)c(C3CCOCC3)nc12 [Example 351, 6-(difluoromethyl)-N-(3-fluoro-8-methoxy-2-(tetrahydro-2H-pyran-4-yl)imidazo[1,2-a]pyridin-6-yl)picolinamide]	0.1

Results, then the compound that gave them:

IC50 [µM]	SMILES
0.001	Cc1cccc(C(=O)Nc2cn3cc(C45COC(C)(C4)C5)nc3nc2OC(C)C)c1F [Example 490, 2-fluoro-N-(7-isopropoxy-2-(1-methyl-2-oxabicyclo[2.1.1]hexan-4-yl)imidazo[1,2-a]pyrimidin-6-yl)-3-methylbenzamide]
0.015	COc1nc(NC(=O)c2coc(C3CC3)n2)cn2cc(C34CCC(C)(C3)OC4)nc12 (stereo not shown) [Example 472, 2-cyclopropyl-N-(8-methoxy-2-(1-methyl-2-oxabicyclo[2.2.1]heptan-4-yl)imidazo[1,2-a]pyrazin-6-yl)oxazole-4-carboxamide 2,2,2-trifluoroacetate]
0.014	COc1nc(NC(=O)c2cccc(C(C)C)n2)cn2cc(C3CCOCC3)nc12 [Example 456, 6-isopropyl-N-(8-methoxy-2-(tetrahydro-2H-pyran-4-yl)imidazo[1,2-a]pyrazin-6-yl)picolinamide]
0.011	CC12CC(c3cn4cc(NC(=O)c5cccc(C(F)F)n5)cc(OC(F)F)c4n3)(CO1)C2 [Example 419, N-(8-(difluoromethoxy)-2-(1-methyl-2-oxabicyclo[2.1.1]hexan-4-yl)imidazo[1,2-a]pyridin-6-yl)-6-(difluoromethyl)picolinamide]
0.006	CCCOc1nc(NC(=O)c2cccc(C(F)F)n2)cn2cc(C3CCOCC3)nc12 [Example 476, 6-(difluoromethyl)-N-(8-propoxy-2-(tetrahydro-2H-pyran-4-yl)imidazo[1,2-a]pyrazin-6-yl)picolinamide 2,2,2-trifluoroacetate]
0.055	COc1nc(NC(=O)c2cccc(C(F)F)n2)cn2cc(C34COCC3C4)nc12 (stereo not shown) [Example 550, N-(2-(3-oxabicyclo[3.1.0]hexan-1-yl)-8-methoxyimidazo[1,2-a]pyrazin-6-yl)-6-(difluoromethyl)picolinamide 2,2,2-trifluoroacetate]
0.005	COc1nc(NC(=O)c2cccc(C(F)F)n2)cn2cc(C3CCCOC3)nc12 (stereo not shown) [Example 549, 6-(difluoromethyl)-N-(8-methoxy-2-(tetrahydro-2H-pyran-3-yl)imidazo[1,2-a]pyrazin-6-yl)picolinamide]
0.021	CC(C)Oc1cc(NC(=O)c2cccc(C(F)F)n2)cn2cc(C3CCOCC3)nc12 [Example 418, 6-(difluoromethyl)-N-(8-isopropoxy-2-(tetrahydro-2H-pyran-4-yl)imidazo[1,2-a]pyridin-6-yl)picolinamide 2,2,2-trifluoroacetate]
0.001	CC(C)Oc1c(NC(=O)c2coc(C3CC3)n2)cn2cc(C34COC(C)(C3)C4)nc2c1F [Example 431, 2-cyclopropyl-N-(8-fluoro-7-isopropoxy-2-(1-methyl-2-oxabicyclo[2.1.1]hexan-4-yl)imidazo[1,2-a]pyridin-6-yl)oxazole-4-carboxamide]
0.012	CC(C)Oc1cc2nc(C34COC(C)(C3)C4)c(Cl)n2cc1NC(=O)c1cccc(C(F)F)n1 [Example 575, N-(3-chloro-7-isopropoxy-2-(1-methyl-2-oxabicyclo[2.1.1]hexan-4-yl)imidazo[1,2-a]pyridin-6-yl)-6-(difluoromethyl)picolinamide 2,2,2-trifluoroacetate]
